These results are taken from patent US9850225B2, “Compounds useful as immunomodulators” (BRISTOL-MYERS SQUIBB COMPANY, priority 2014, dated 2017).

Where two headings read alike, the source gives them in different places.

The test addresses PD-1/PD-L1 interaction (PD-1-Ig / PD-L1-His) (Homo sapiens (Human), UniProt Q9NZQ7). The test can be described thus: PD-1/PD-L1 Homogenous Time-Resolved Fluorescence (HTRF) binding assay. The conditions noted are these: PD-1/PD-L1 HTRF binding assay, read-out: Range or IC50. Summed up:
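Human PD-L1-His (10 nM final) was pre-incubated with inhibitor for 15 min, then PD-1-Ig (20 nM final) was added for a further 15 min in dPBS with 0.1% BSA and 0.05% Tween-20. Binding was detected by HTRF using Eu-cryptate anti-Ig (1 nM) and APC anti-His (20 nM).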
For orientation: Time-resolved FRET reads energy transfer from a long-lived donor to a nearby acceptor.

PD-1/PD-L1 interaction (PD-1-Ig / PD-L1-His), sequence (Q9NZQ7 other isoform, or with tags, fused parts or gaps): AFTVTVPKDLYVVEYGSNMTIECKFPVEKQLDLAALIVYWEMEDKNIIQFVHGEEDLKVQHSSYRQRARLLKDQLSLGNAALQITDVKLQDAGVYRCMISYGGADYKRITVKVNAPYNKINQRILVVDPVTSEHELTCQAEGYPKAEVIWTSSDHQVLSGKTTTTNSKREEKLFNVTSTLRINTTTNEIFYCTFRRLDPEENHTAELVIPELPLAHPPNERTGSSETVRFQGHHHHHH

Consider `CC(=O)NCCNCc1ccc(OCc2cccc(-c3ccccc3)c2C)cc1OCc1cc(C)cc(F)c1` [Example 1113, N-(2-((2-((3-fluoro-5-methylbenzyl)oxy)-4-((2-methyl-[1,1′-biphenyl]-3-yl)methoxy)benzyl)amino)ethyl)acetamide], for which the IC50 (value given as range class) fell in the range of 100 to 20000 nM.
For the compound `CC(=O)NCCNCc1ccc(OCc2cccc(-c3ccccc3)c2C)cc1OCc1ccc(F)c(C#N)c1` [Example 1114, N-(2-((2-((3-cyano-4-fluorobenzyl)oxy)-4-((2-methyl-[1,1′-biphenyl]-3-yl)methoxy)benzyl)amino)ethyl)acetamide], the IC50 (value given as range class) is 10 to 100 nM.
Same read-out and setting: the figure for `CC(=O)NCCNCc1ccc(OCc2cccc(-c3ccccc3)c2C)cc1OCc1cccc(OC(F)F)c1` [Example 1116, N-(2-((2-((3-(difluoromethoxy)benzyl)oxy)-4-((2-methyl-[1,1′-biphenyl]-3-yl)methoxy)benzyl)amino)ethyl)acetamide] is 100 to 20000 nM.
The same measure, in the same setting: to `CC(=O)NCCNCc1ccc(OCc2cccc(-c3ccccc3)c2C)cc1OCc1cccnc1` [Example 1117, N-(2-((4-((2-methyl-[1,1′-biphenyl]-3-yl)methoxy)-2-(pyridin-3-ylmethoxy)benzyl)amino)ethyl)acetamide] belongs 10 to 100 nM.
Same read-out and setting: the figure for `CC(=O)NCCNCc1ccc(OCc2cccc(-c3ccccc3)c2C)cc1OCc1nccc2ccccc12` [Example 1118, N-(2-((2-(isoquinolin-1-ylmethoxy)-4-((2-methyl-[1,1′-biphenyl]-3-yl)methoxy)benzyl)amino)ethyl)acetamide] is 100 to 20000 nM.
Consider `CC(=O)NCCNCc1ccc(OCc2cccc(-c3ccccc3)c2C)cc1OCc1cccc(NC(=O)OC(C)(C)C)c1` [Example 1119, tert-butyl (3-((2-(((2-acetamidoethyl)amino)methyl)-5-((2-methyl-[1,1′-biphenyl]-3-yl)methoxy)phenoxy)methyl)phenyl)carbamate], for which the IC50 (numeric value) came to 14200 nM.
Regarding `CC(=O)NCCNCc1ccc(OCc2cccc(-c3ccccc3)c2C)cc1OC[C@@H]1CCC(=O)N1` [Example 1120, (S)—N-(2-((4-((2-methyl-[1,1′-biphenyl]-3-yl)methoxy)-2-((5-oxopyrrolidin-2-yl)methoxy)benzyl)amino)ethyl)acetamide], for the setting “value given as range class”, the IC50 lay within 10 to 100 nM.
In the case of `Cc1c(COc2ccc(CNC[C@@H](O)CC(=O)O)c(OCc3cccc(C#N)c3)c2)cccc1-c1ccc2c(c1)OCCO2` [Example 1121, (S)-4-(2-(3-cyanobenzyloxy)-4-(3-(2,3-dihydrobenzo[b][1,4]dioxin-6-yl)-2-methylbenzyloxy)benzylamino)-3-hydroxybutanoic acid], the IC50 (value given as range class) fell in the range of 0.6 to 10 nM.
Same read-out and setting: the figure for `Cc1c(COc2ccc(CN[C@H](CO)C(=O)O)c(OCc3cccc(C#N)c3)c2)cccc1-c1ccc2c(c1)OCCO2` [Example 1122, (R)-2-(2-(3-cyanobenzyloxy)-4-(3-(2,3-dihydrobenzo[b][1,4]dioxin-6-yl)-2-methylbenzyloxy)benzylamino)-3-hydroxypropanoic acid] is 0.6 to 10 nM; for `Cc1c(COc2ccc(CN[C@@H](C(=O)O)[C@H](C)O)c(OCc3cccc(C#N)c3)c2)cccc1-c1ccc2c(c1)OCCO2` [Example 1123, (2R,3S)-2-((2-((3-cyanobenzyl)oxy)-4-((3-(2,3-dihydrobenzo[b][1,4]dioxin-6-yl)-2-methylbenzyl)oxy)benzyl)amino)-3-hydroxybutanoic acid] it is 0.6 to 10 nM; for `Cc1c(COc2ccc(CNC(C)(CO)C(=O)O)c(OCc3cccc(C#N)c3)c2)cccc1-c1ccc2c(c1)OCCO2` (stereo not drawn) [Example 1124, 2-((2-((3-cyanobenzyl)oxy)-4-((3-(2,3-dihydrobenzo[b][1,4]dioxin-6-yl)-2-methylbenzyl)oxy)benzyl)amino)-3-hydroxy-2-methylpropanoic acid] it is 0.6 to 10 nM.
Turning to `Cc1c(COc2ccc(CN[C@@H](C(=O)O)[C@@H](C)O)c(OCc3cccc(C#N)c3)c2)cccc1-c1ccc2c(c1)OCCO2` [Example 1125, (2R,3R)-2-((2-((3-cyanobenzyl)oxy)-4-((3-(2,3-dihydrobenzo[b][1,4]dioxin-6-yl)-2-methylbenzyl)oxy)benzyl)amino)-3-hydroxybutanoic acid], the IC50 (value given as range class) was in the range of 0.6 to 10 nM.
Regarding `Cc1c(COc2ccc(CN[C@H](CO)CC(=O)O)c(OCc3cccc(C#N)c3)c2)cccc1-c1ccc2c(c1)OCCO2` [Example 1126, (S)-3-((2-((3-cyanobenzyl)oxy)-4-((3-(2,3-dihydrobenzo[b][1,4]dioxin-6-yl)-2-methylbenzyl)oxy)benzyl)amino)-4-hydroxybutanoic acid], the IC50 (value given as range class) is 0.6 to 10 nM.
On the same count and under the same terms, the figure for `Cc1c(COc2ccc(CN[C@](C)(CO)C(=O)O)c(OCc3cccc(C#N)c3)c2)cccc1-c1ccc2c(c1)OCCO2` [Example 1127, (R)-2-((2-((3-cyanobenzyl)oxy)-4-((3-(2,3-dihydrobenzo[b][1,4]dioxin-6-yl)-2-methylbenzyl)oxy)benzyl)amino)-3-hydroxy-2-methylpropanoic acid] is 0.6 to 10 nM; for `Cc1c(COc2ccc(CN[C@@](C)(CO)C(=O)O)c(OCc3cccc(C#N)c3)c2)cccc1-c1ccc2c(c1)OCCO2` [Example 1128, (S)-2-((2-((3-cyanobenzyl)oxy)-4-((3-(2,3-dihydrobenzo[b][1,4]dioxin-6-yl)-2-methylbenzyl)oxy)benzyl)amino)-3-hydroxy-2-methylpropanoic acid] it is 0.6 to 10 nM; for `Cc1c(COc2ccc(CN[C@@H](CO)CC(=O)O)c(OCc3cccc(C#N)c3)c2)cccc1-c1ccc2c(c1)OCCO2` [Example 1129, (R)-3-((2-((3-cyanobenzyl)oxy)-4-((3-(2,3-dihydrobenzo[b][1,4]dioxin-6-yl)-2-methylbenzyl)oxy)benzyl)amino)-4-hydroxybutanoic acid] it is 0.6 to 10 nM.
Same read-out and setting: the figure for `CC(=O)NCCNCc1ccc(OCc2cccc(-c3ccc4c(c3)OCCO4)c2C)cc1OCc1cc(C#N)ccn1` [Example 1130, N-(2-(2-((4-cyanopyridin-2-yl)methoxy)-4-(3-(2,3-dihydrobenzo[b][1,4]dioxin-6-yl)-2-methylbenzyloxy)benzylamino)ethyl)acetamide] is 10 to 100 nM; for `Cc1c(COc2ccc(CN[C@](C)(CO)C(=O)O)c(OCc3cc(C#N)ccn3)c2)cccc1-c1ccc2c(c1)OCCO2` [Example 1131, (R)-2-(2-((4-cyanopyridin-2-yl)methoxy)-4-(3-(2,3-dihydrobenzo[b][1,4]dioxin-6-yl)-2-methylbenzyloxy)benzylamino)-3-hydroxy-2-methylpropanoic acid] it is 0.6 to 10 nM; for `Cc1c(COc2ccc(CN3CCCC[C@H]3C(=O)O)c(OCc3cc(C#N)ccn3)c2)cccc1-c1ccc2c(c1)OCCO2` [Example 1132, (S)-1-(2-((4-cyanopyridin-2-yl)methoxy)-4-(3-(2,3-dihydrobenzo[b][1,4]dioxin-6-yl)-2-methylbenzyloxy)benzyl)piperidine-2-carboxylic acid] it is 10 to 100 nM.
On the same count and under the same terms, to `COc1cc(OCc2cccc(-c3ccccc3)c2C)cc(OCc2cccc(C#N)c2)c1CNC[C@@H](O)CC(=O)O` [Example 1133, (S)-4-((2-((3-cyanobenzyl)oxy)-6-methoxy-4-((2-methyl-[1,1′-biphenyl]-3-yl)methoxy)benzyl)amino)-3-hydroxybutanoic acid] belongs 0.6 to 10 nM.
Regarding `COc1cc(OCc2cccc(-c3ccccc3)c2C)cc(OCc2cccc(C#N)c2)c1CN[C@H](CO)C(=O)O` [Example 1134, (R)-2-((2-((3-cyanobenzyl)oxy)-6-methoxy-4-((2-methyl-[1,1′-biphenyl]-3-yl)methoxy)benzyl)amino)-3-hydroxypropanoic acid], under “value given as range class”, the IC50 was in the range of 0.6 to 10 nM.
Same read-out and setting: to `COc1cc(OCc2cccc(-c3ccccc3)c2C)cc(OCc2cccc(C#N)c2)c1CN[C@@H](C(=O)O)[C@H](C)O` [Example 1135, (2R,3S)-2-((2-((3-cyanobenzyl)oxy)-6-methoxy-4-((2-methyl-[1,1′-biphenyl]-3-yl)methoxy)benzyl)amino)-3-hydroxybutanoic acid] belongs 0.6 to 10 nM; to `COc1cc(OCc2cccc(-c3ccccc3)c2C)cc(OCc2cccc(C#N)c2)c1CN[C@H](C(=O)O)[C@H](C)O` [Example 1136, (2S,3S)-2-((2-((3-cyanobenzyl)oxy)-6-methoxy-4-((2-methyl-[1,1′-biphenyl]-3-yl)methoxy)benzyl)amino)-3-hydroxybutanoic acid], 0.6 to 10 nM.
Same read-out and setting: the figure for `COc1cc(OCc2cccc(-c3ccccc3)c2C)cc(OCc2cccc(C#N)c2)c1CNC(C)(CO)C(=O)O` (stereo not drawn) [Example 1137, 2-((2-((3-cyanobenzyl)oxy)-6-methoxy-4-((2-methyl-[1,1′-biphenyl]-3-yl)methoxy)benzyl)amino)-3-hydroxy-2-methylpropanoic acid] is 0.6 to 10 nM; for `COc1cc(OCc2cccc(-c3ccccc3)c2C)cc(OCc2cccc(C#N)c2)c1CN[C@@H](C(=O)O)[C@@H](C)O` [Example 1138, (2R,3R)-2-((2-((3-cyanobenzyl)oxy)-6-methoxy-4-((2-methyl-[1,1′-biphenyl]-3-yl)methoxy)benzyl)amino)-3-hydroxybutanoic acid] it is 10 to 100 nM; for `COc1cc(OCc2cccc(-c3ccc4c(c3)OCCO4)c2C)cc(OCc2cccc(C#N)c2)c1CN[C@H](CO)C(=O)O` [Example 1139, (R)-2-((2-((3-cyanobenzyl)oxy)-4-((3-(2,3-dihydrobenzo[b][1,4]dioxin-6-yl)-2-methylbenzyl)oxy)-6-methoxybenzyl)amino)-3-hydroxypropanoic acid] it is 0.6 to 10 nM.
Same read-out and setting: to `COc1cc(OCc2cccc(-c3ccc4c(c3)OCCO4)c2C)cc(OCc2cccc(C#N)c2)c1CNC[C@@H](O)CC(=O)O` [Example 1140, (S)-4-((2-((3-cyanobenzyl)oxy)-4-((3-(2,3-dihydrobenzo[b][1,4]dioxin-6-yl)-2-methylbenzyl)oxy)-6-methoxybenzyl)amino)-3-hydroxybutanoic acid] belongs 0.6 to 10 nM.

As a reminder, the IC50 is the concentration that inhibits the measured activity by half.
